Experimental data reported in ChEMBL document CHEMBL1150635, “Cytotoxic pyrrolo- and furanoterpenoids from the sponge sarcotragus species” (2002).
Converted amounts (≈) assume the structure as drawn.

Legend:
Format in all cases: functional
Conditions in all cases: read-out: ED50 (the source's name)
A549 = experiment: Cytotoxicity against human A549 cells
SK-OV-3 = experiment: Cytotoxicity against human SKOV3 cells
SK-MEL-2 = experiment: Cytotoxicity against human SK-MEL-2 cells
XF498 = experiment: Cytotoxicity against human XF498 cells
HCT-15 = experiment: Cytotoxicity against human HCT15 cells

| SMILES | EC50 (A549) [µg/mL] | EC50 (SK-OV-3) [µg/mL] | EC50 (SK-MEL-2) [µg/mL] | EC50 (XF498) [µg/mL] | EC50 (HCT-15) [µg/mL] |
| --- | --- | --- | --- | --- | --- |
| CCC(C)CN1CC=C(CCC/C(C)=C/C=C/[C@@H](C)CC/C=C(/C)C[C@H]2OC(=O)C(C)=C2O)C1=O (stereo not given in full) | 27.1 (≈ 56 µM) | 26.8 (≈ 55.4 µM) | 15.9 (≈ 32.9 µM) | 25.2 (≈ 52.1 µM) | 22.3 (≈ 46.1 µM) |
| COc1cccc2c1C(=O)c1c(O)c3c(c(O)c1C2=O)C[C@@](O)(C(=O)CO)C[C@@H]3O[C@H]1C[C@H](N)[C@H](O)[C@H](C)O1 [DOXORUBICIN] | 0.02 (≈ 0.0368 µM) | 0.16 (≈ 0.294 µM) | 0.02 (≈ 0.0368 µM) | 0.13 (≈ 0.239 µM) | 0.06 (≈ 0.11 µM) |
| CC1=C(O)[C@@H](C/C(C)=C\CC[C@H](C)/C=C/C=C(\C)CCCc2ccoc2)OC1=O [EPI-SARCOTIN A] | 12.3 (≈ 30.9 µM) | 9.6 (≈ 24.1 µM) | 5.6 (≈ 14.1 µM) | 9.8 (≈ 24.6 µM) | 6.5 (≈ 16.3 µM) |
| CC1=C(O)[C@@H](C/C(C)=C\CC[C@H](C)/C=C/C=C(\C)CCCC2=CCN(CCC(C)C)C2=O)OC1=O [EPI-SARCOTRINE A] | 4.3 (≈ 8.89 µM) | 4 (≈ 8.27 µM) | 3.4 (≈ 7.03 µM) | 3.9 (≈ 8.06 µM) | 3.8 (≈ 7.86 µM) |
| CC1=C(O)[C@@H](C/C(C)=C\CC[C@H](C)/C=C/C=C(\C)CCCC2=CCN(CCc3ccccc3)C2=O)OC1=O [EPI-SARCOTRINE B] | 16.8 (≈ 32.5 µM) | 13.1 (≈ 25.3 µM) | 4.8 (≈ 9.27 µM) | 10.5 (≈ 20.3 µM) | 5.4 (≈ 10.4 µM) |
| COC1C=C(CCC/C(C)=C/C=C/[C@@H](C)CC/C=C(/C)C[C@@H]2OC(=O)C(C)=C2O)C(=O)O1 (stereo not given in full) [SARCOTIN F] | 24.1 (≈ 54.2 µM) | 15.2 (≈ 34.2 µM) | 7.6 (≈ 17.1 µM) | 20.1 (≈ 45.2 µM) | 10.5 (≈ 23.6 µM) |
| CO[C@]1(Cc2ccoc2)C=C(CC/C=C(\C)CCC[C@@H](C)/C=C2\OC(=O)C(C)=C2O)C(=O)O1 [SARCOTIN G] | 9.1 (≈ 19.9 µM) | 10 (≈ 21.9 µM) | 5.1 (≈ 11.2 µM) | 7.6 (≈ 16.6 µM) | 7.3 (≈ 16 µM) |
| CO[C@]1(Cc2ccoc2)C=C(CCC/C(C)=C\CC[C@@H](C)/C=C2\OC(=O)C(C)=C2O)C(=O)O1 [SARCOTIN H] | 6.7 (≈ 14.7 µM) | 6.8 (≈ 14.9 µM) | 5.9 (≈ 12.9 µM) | 6.3 (≈ 13.8 µM) | 6.1 (≈ 13.4 µM) |
| C/C(=C/CC[C@@H](C)/C=C/C=C(\C)CCCc1ccoc1)CC(O)C(=O)[O-].[Na+] (stereo not given in full) [SARCOTIN I] | 24.8 | 23.3 | 25.7 | 25.9 | 23.7 |
| COC(=O)C(O)C/C(C)=C\CC[C@H](C)/C=C/C=C(\C)CCCc1ccoc1 (stereo not given in full) [SARCOTIN J] | 18.1 (≈ 48.3 µM) | 10 (≈ 26.7 µM) | 7.8 (≈ 20.8 µM) | 24.3 (≈ 64.9 µM) | 8.7 (≈ 23.2 µM) |
| COC(/C=C/[C@@H](C)CC/C=C(/C)C[C@@H]1OC(=O)C(C)=C1O)C(C)(O)CCCc1ccoc1 (stereo not given in full) [SARCOTIN M] | 9 (≈ 20.2 µM) | 8.4 (≈ 18.8 µM) | 9.9 (≈ 22.2 µM) | 11.3 (≈ 25.3 µM) | 10.1 (≈ 22.6 µM) |
| CC1=C(O)[C@H](C/C(C)=C\CC[C@H](C)/C=C/C=C(\C)CCCC2=CCN(CCC(C)C)C2=O)OC1=O [SARCOTRINE A] | 15.1 (≈ 31.2 µM) | 5.3 (≈ 11 µM) | 4.1 (≈ 8.48 µM) | 5.5 (≈ 11.4 µM) | 5 (≈ 10.3 µM) |
| CC1=C(O)[C@H](C/C(C)=C\CC[C@H](C)/C=C/C=C(\C)CCCC2=CCN(CCc3ccccc3)C2=O)OC1=O [SARCOTRINE B] | 6.3 (≈ 12.2 µM) | 6.7 (≈ 12.9 µM) | 4.3 (≈ 8.31 µM) | 5.2 (≈ 10 µM) | 4.9 (≈ 9.46 µM) |
| CCC(C)CN1CC=C(CCC/C(C)=C/C=C/[C@@H](C)CC/C=C(/C)C[C@@H]2OC(=O)C(C)=C2O)C1=O (stereo not given in full) [SARCOTRINE C] | 19 (≈ 39.3 µM) | 6.9 (≈ 14.3 µM) | 3.8 (≈ 7.86 µM) | 5.4 (≈ 11.2 µM) | 5.3 (≈ 11 µM) |
| CC1=C(O)[C@H](C/C(C)=C\CC[C@H](C)/C=C/C=C(\C)CCCC2=CC(=O)N(CCC(C)C)C2)OC1=O [SARCOTRINE D] | > 30 | 25.9 (≈ 53.5 µM) | 13.2 (≈ 27.3 µM) | > 30 | 21.6 (≈ 44.7 µM) |
